Results as given in patent US6329390A, “5-Bicycloindole compounds” (NPS Allelix Corp., priority 1998, dated 2001).

Legend:
[1] = target: T1, 5-HT1B receptor (Homo sapiens, UniProt P28222); experiment: Binding affinity, inhibition of 3H-serotonin binding to membranes of cells expressing the 5-HT1B receptor; settings: for inhibition at 0.1 µM: 100 nM of test compound, 3H-serotonin 2.5 nM, 60 minute incubation at 22° C., read-out: affinity for the 5-HT1B receptor (percent inhibition of radioligand binding); for binding at the 5-HT1B receptor (in words): at a concentration of 100 nM
T1 construct: expressed in transfected cells
Protocol: (§1) Selected compounds of the previous examples, as well as reference compounds were evaluated for binding affinity using cell types receptive specifically to 5-HT1D and 5-HT1B ligands. The assay protocol generally entailed the incubation of membranes prepared f cells expressing the 5-HT1D or 5-HT1B subtype of 5-HT receptors with ^3 H serotonin (1 nM for 5-HT1 D and 2.5 nM for 5-HT1B). Specific concentrations of the test compound were incubated with the radioligand and the membrane homogenates prepared from the recombinant cells. After a 60 minute incubation at 22° C., the incubation was terminated by vacuum filtration. The filters were washed with buffer and counted for radioactivity using liquid scintillation spectroscopy. The affinity of the test compound for the 5-HT1D receptor is expressed as the amount (in percent) of binding of the radioligand that is inhibited in the presence of 100 nM of test compound. A greater percent inhibition indicates greater affinity for the 5-HT1D receptor.

[2] = target: T2, 5-HT1D receptor (Homo sapiens, UniProt P28221); experiment: Binding affinity, inhibition of 3H-serotonin binding to membranes of cells expressing the 5-HT1D receptor; settings: for binding at the 5-HT1D receptor (in words): at a concentration of 100 nM; for inhibition at 0.1 µM: 100 nM of test compound, 3H-serotonin 1 nM, 60 minute incubation at 22° C., read-out: affinity for the 5-HT1D receptor: amount (in percent) of binding of the radioligand that is inhibited
T2 construct: expressed in transfected cells
Protocol: as §1

T1 sequence (P28222 whole entry): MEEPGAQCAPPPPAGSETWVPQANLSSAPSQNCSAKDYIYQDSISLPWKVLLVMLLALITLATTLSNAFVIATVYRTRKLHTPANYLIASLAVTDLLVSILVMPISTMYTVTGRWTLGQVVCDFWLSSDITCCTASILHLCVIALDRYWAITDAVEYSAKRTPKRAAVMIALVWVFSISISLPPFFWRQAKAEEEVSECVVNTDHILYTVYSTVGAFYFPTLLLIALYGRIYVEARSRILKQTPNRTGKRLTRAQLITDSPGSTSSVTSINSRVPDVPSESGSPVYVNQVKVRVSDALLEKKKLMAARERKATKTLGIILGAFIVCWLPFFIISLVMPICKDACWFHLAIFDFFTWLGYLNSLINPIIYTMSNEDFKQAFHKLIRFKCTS
T2 sequence (P28221 whole entry): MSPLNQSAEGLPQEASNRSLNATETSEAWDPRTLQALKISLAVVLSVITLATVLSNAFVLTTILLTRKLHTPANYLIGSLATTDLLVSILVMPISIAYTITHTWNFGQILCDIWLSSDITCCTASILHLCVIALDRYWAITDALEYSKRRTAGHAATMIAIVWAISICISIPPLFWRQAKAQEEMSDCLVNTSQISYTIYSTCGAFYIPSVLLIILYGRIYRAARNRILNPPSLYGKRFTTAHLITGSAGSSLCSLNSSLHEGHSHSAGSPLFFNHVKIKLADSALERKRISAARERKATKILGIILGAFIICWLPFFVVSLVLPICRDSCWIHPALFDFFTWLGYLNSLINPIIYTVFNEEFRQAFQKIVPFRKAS

Structure (SMILES)	inhibition at 0.1 µM [1] [%]	binding at the 5-HT1D receptor (in words) [2]	binding at the 5-HT1B receptor (in words) [1]	inhibition at 0.1 µM [2] [%]
CN1CCC[C@@H]1Cc1c[nH]c2ccc(C3(O)CCN4CCCC4C3)cc12 (stereo partly drawn) [Example 6b, 5-[(7-R,S)(8a-R,S)-7-Hydroxyoctahydroindolizin-7-yl]-3-{[(2R)-N-methylpyrrolidin-2-yl]methyl}-1H-indole]	< 30	–	–	–
CN1CCC[C@H]1Cc1c[nH]c2ccc(C3CCN4CCCC4C3)cc12 (single isomer, unassigned) [Example 8b, 5-[(7R or 7S)(8a-R,S)-Octahydroindolizin-7-yl] 3-{[(2S)-N-methylpyrrolidin-2-yl]methyl}-1 H-indole]	–	little, if any, binding	little, if any, binding	–
CN(C)CCc1c[nH]c2ccc(C3(O)CCN4CCCC4C3)cc12 (single isomer, unassigned) [Example 6c, 5-[(7-R or S)(8a-R,S)-7-Hydroxyoctahydroindolizin-7-yl]-3-[2-(N,N-dimethylamino)ethyl]indole]	–	–	–	> 90
CN1CCC[C@H]1Cc1c[nH]c2ccc(C3(O)CCN4CCCC4C3)cc12 (stereo partly drawn) [Example 6a, 5-[(7-R,S)(8a-R,S)-7-Hydroxyoctahydroindolizin-7-yI]-3-{[(2S)-N-methylpyrrolidin-2-yl]methyl}-1 H-indole]	–	little, if any, binding	little, if any, binding	–
CN1CCC[C@H]1Cc1c[nH]c2ccc(C3=CC4CCCN4CC3)cc12 (stereo partly drawn) [Example 7a, 5-[(8a-R,S)-1,2,3,5,6,8a-Hexahydroindolizin-7-yl]-3-{[(2S)-N-methylpyrrolidin-2-yl]methyl}-1 H-indole]	–	little, if any, binding	little, if any, binding	–
CN1CCC[C@H]1Cc1c[nH]c2ccc(C3=CCN4CCCC4C3)cc12 (stereo partly drawn) [Example 7b, 5-[(8a-R,S)-1,2,3,5,8,8a-Hexahydroindolizin-7-yl]-3-{[(2S)-N-methylpyrrolidin-2-yl]methyl}-1 H-indole]	–	little, if any, binding	little, if any, binding	–
CN1CCC[C@H]1Cc1c[nH]c2ccc(C3CCN4CCCC4C3)cc12 (single isomer, unassigned) [Example 8a, 5-[(7R or 7S)(8a-R,S)-Octahydroindolizin-7-yl]-3-{[(2S)-N-methylpyrrolidin-2-yl]methyl}-1 H-indole]	–	little, if any, binding	little, if any, binding	–
CN1CCC[C@@H]1Cc1c[nH]c2ccc(C3=CCN4CCCC4C3)cc12 (stereo partly drawn) [Example 7d, 5-[(8a-R,S)-1,2,3,5,8,8a-Hexahydroindolizin-7-yl]-3-{[(2R)-N-methylpyrrolidin-2-yl]methyl}-1H-indole]	–	–	–	> 90
CN1CCC[C@@H]1Cc1c[nH]c2ccc(C3CCN4CCCC4C3)cc12 (stereo partly drawn) [Example 8c, 5-[(7-R,S)(8a-R,S)-Octahydroindolizin-7-yl]- -{[(2R)-N-methylpyrrolidin-2-yl]methyl}-1H-indole]	< 30	–	–	–
